In patent publication US9738637B2, “Histone demethylase inhibitors” (Quanticel Pharmaceuticals, Inc., priority 2013, dated 2017) one finds IC50 data, which are given here for 18 compounds.

What is called IC50 is the concentration that gives 50% inhibition.

One test concerns the target Jarid1B (Homo sapiens (Human), UniProt Q9UGL1). Briefly: Jarid1B in vitro enzyme inhibition assay (TR-FRET). In kind it is biochemical. The following applies: TR-FRET, H3K4me3-biotin peptide; read-out: IC50 Jarid1B. On the technique in general: Time-resolved FRET reads energy transfer from a long-lived donor to a nearby acceptor.
For a further test, the target named is Jarid1A (Homo sapiens (Human), UniProt P29375). Briefly: Jarid1A in vitro enzyme inhibition assay (TR-FRET). Type of test: biochemical. To be noted: H3K4me3-biotin peptide.
The target in another test is JMJD2C (Homo sapiens (Human), UniProt Q9H3R0). As to the kind of experiment: JMJD2C in vitro enzyme inhibition assay (TR-FRET). In kind it is biochemical. To be noted: TR-FRET, H3K9me3-biotin peptide; read-out: IC50 JNJD2C.
Another test concerns the target JMJD2A (Homo sapiens (Human), UniProt O75164). Briefly: JMJD2A in vitro enzyme inhibition assay (TR-FRET). To be noted: H3K9me3-biotin peptide. In kind it is biochemical. As to the method: This assay determines the ability of a test compound to inhibit Jarid1A, Jarid1B, JMJD2C, and JMJD2A demethylase activity.
Reaction product was determined quantitatively by TR-FRET after the addition of detection reagent Phycolink Streptavidin-allophycocyanin (Prozyme) and Europium-anti-di-methylated histone H3 lysine 9 (H3K9me2) antibody (PerkinElmer) in the presence of 5 mM EDTA in LANCE detection buffer (PerkinElmer) at a final concentration of 50 nM and 1 nM, respectively.
The assay reaction was initiated by the following: 2 μl of the mixture of 900 nM H3K9me3-biotin labeled peptide and 6 μM alpha-ketoglutaric acid with 2 μl of 11-point serial diluted inhibitor in 3% DMSO were added to each well of plate, followed by the addition of 2 μl of 6 nM JMJD2A to initiate the reaction. The reaction mixture was incubated at room temperature for 30 minutes, and terminated by the addition of 6 μl of 5 mM EDTA in LANCE detection buffer containing 100 nM Phycolink Streptavidin-allophycocyanin and 2 nM Europium-anti-H3K9me2 antibody.
The ability of the compounds disclosed herein to inhibit demethylase activity was quantified and the respective IC50 value was determined.

For the next test, the system named is KDM5A and KDM5B. Briefly: In vitro cell-based assay, ZR-75-1 cell line: tri-methyl H3K4 immuno-blotting (cellular inhibition of KDM5A/B). To be noted: ZR-75-1 breast cancer cells, 72 hours, read-out: IC50 ZR-75-1 cell-MOA. The source says:
This quantitative immuno-blotting assay measures the amount tri-methylated histone H3 at amino acid Lysine number 4, a specific substrate […] of the direct enzymatic activity of the histone demethylases KDM5A and KDM5B from extracts of the ZR-75-1 breast cancer cell line.
This assay is a fluorometric immunoassay for the quantification of tri-methyl H3K4 extracted from cells treated with test compound and is used as a measure of the cellular inhibition of KDM5A/B.
Cells were left in the presence of test compound for 72 hours. Extracts were prepared containing all of the cellular histone material using detergent based lysis and sonication methods. These lysates were subsequently normalized for total protein content using a colorimetric bicinchonic acid assay (MicroBCA Pierce/Thermo Scientific). Normalized cell extracts were then subjected to typical immuno-blotting procedures using NuPage reagents (Life Technologies). Electrophoretically separated histones were then transferred and immobilized using polyvinylidene difluoride membrane (Immobilon-FL Millipore). The amount of tri-methylated lysine 4 of histone H3 was detected using an antibody specific to the tri-methylated state (Cell Signaling Technologies) and quantified on an infrared imager using a densitometry software package (Odyssey CLx, Image Studio, Li-Cor). This background subtracted densitometry value was reported as a ration of the GAPDH amount for that sample and then calculated as a percent of the DMSO treated sample. The software package XL-fit (IDBS) was then used to calculate a relative IC50 value for the dilution series of a given test compound according to the equation: fit=(D+((Vmax*(x^n))/((x^n)+(Km^n)))).

Where a name gives a salt, the structure may show the parent alone.

Chain of Jarid1A (P29375 1-1090): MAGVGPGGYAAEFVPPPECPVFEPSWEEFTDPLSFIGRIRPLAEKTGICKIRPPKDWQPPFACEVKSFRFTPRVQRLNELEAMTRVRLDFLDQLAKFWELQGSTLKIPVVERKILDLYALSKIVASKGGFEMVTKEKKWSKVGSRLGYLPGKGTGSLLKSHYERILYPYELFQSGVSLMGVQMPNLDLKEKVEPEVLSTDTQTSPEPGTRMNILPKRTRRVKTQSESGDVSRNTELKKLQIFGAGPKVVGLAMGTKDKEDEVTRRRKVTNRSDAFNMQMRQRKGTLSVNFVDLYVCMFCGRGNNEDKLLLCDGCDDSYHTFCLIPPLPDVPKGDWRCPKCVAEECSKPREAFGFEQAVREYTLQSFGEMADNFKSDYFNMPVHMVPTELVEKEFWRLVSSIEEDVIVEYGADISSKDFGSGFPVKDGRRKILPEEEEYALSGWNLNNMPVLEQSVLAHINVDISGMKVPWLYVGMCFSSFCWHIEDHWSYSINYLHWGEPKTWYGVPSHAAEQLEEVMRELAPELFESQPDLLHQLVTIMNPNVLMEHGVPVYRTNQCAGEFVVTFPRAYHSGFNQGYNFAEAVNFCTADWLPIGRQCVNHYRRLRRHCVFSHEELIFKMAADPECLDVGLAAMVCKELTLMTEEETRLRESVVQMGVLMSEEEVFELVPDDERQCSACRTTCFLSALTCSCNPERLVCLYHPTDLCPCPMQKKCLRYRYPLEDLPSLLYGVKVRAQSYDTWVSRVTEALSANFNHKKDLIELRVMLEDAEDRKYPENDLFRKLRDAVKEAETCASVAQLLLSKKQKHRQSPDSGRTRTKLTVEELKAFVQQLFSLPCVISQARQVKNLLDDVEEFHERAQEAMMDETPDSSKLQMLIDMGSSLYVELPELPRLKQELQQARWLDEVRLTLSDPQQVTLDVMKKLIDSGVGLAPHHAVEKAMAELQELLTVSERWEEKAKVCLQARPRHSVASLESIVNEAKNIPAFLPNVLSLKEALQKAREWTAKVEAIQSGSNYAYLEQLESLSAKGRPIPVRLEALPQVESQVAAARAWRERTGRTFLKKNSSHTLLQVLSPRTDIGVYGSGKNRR
Chain of JMJD2A (O75164 1-350): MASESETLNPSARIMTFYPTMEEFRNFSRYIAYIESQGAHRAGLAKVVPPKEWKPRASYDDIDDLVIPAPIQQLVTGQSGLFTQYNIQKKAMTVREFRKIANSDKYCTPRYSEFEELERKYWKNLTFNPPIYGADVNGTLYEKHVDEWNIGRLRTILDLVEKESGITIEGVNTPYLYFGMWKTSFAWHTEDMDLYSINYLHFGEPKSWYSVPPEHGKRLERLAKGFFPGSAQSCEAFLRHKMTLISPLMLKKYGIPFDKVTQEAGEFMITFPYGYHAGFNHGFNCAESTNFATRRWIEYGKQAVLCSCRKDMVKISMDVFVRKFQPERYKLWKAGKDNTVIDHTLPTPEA
Chain of JMJD2C (Q9H3R0 2-372): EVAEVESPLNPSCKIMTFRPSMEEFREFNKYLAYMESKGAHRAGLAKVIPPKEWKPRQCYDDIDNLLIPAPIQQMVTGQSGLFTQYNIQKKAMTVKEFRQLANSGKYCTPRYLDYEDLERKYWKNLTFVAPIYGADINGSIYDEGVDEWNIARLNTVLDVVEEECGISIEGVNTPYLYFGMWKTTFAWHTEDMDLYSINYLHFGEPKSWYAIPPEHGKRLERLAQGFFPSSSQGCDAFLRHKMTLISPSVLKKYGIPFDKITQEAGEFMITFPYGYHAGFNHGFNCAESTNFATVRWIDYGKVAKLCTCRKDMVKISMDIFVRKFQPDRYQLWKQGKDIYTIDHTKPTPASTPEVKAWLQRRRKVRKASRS
Chain of Jarid1B (Q9UGL1 2-751): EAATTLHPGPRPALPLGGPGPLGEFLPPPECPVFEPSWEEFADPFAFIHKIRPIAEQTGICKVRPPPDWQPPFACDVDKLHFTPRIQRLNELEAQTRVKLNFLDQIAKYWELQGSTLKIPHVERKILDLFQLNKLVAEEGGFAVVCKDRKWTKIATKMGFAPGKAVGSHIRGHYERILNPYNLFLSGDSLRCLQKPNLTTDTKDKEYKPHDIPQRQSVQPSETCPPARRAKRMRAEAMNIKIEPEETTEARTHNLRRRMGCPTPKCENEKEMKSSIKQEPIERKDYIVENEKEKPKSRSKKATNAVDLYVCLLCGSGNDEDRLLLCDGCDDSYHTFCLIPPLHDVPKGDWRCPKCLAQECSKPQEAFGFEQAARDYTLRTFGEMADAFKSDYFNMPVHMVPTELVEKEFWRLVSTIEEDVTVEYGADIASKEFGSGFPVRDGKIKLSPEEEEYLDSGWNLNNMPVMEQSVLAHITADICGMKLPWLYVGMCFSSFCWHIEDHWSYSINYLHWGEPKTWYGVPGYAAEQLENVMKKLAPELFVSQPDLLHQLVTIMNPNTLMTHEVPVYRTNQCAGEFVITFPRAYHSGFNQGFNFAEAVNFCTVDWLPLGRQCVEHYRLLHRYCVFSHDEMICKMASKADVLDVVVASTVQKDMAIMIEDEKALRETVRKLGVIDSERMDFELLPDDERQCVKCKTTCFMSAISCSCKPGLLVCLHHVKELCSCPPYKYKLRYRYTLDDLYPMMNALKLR

On to `O=C(O)c1ccnc2cc(-c3ccccc3)[nH]c12` [Example 2, 2-phenyl-1H-pyrrolo[3,2-b]pyridine-7-carboxylic acid], for which the IC50 on Jarid1B, against Jarid1A, on JMJD2C and against JMJD2A was 0.1 to 1 µM throughout.
On to `O=C(O)c1ccnc2cc(Cc3ccc(Cl)c(Cl)c3)[nH]c12` [Example 130, 2-(3,4-dichlorobenzyl)-1H-pyrrolo[3,2-b]pyridine-7-carboxylic acid], for which the IC50 on Jarid1B was 1 to 10 µM; at Jarid1A, 1 to 10 µM; at JMJD2C it was less than 0.1 µM; against JMJD2A, 0.1 to 1 µM.
As to `O=C(O)c1ccnc2cc(Cc3ccc(Cl)c(OC(F)(F)F)c3)[nH]c12` [Example 142, 2-[4-chloro-3-(trifluoromethoxy)benzyl]-1H-pyrrolo[3,2-b]pyridine-7-carboxylic acid], the IC50 is less than 0.1 µM on Jarid1B, 0.1 to 1 µM on Jarid1A, less than 0.1 µM at JMJD2C and 0.1 to 1 µM on JMJD2A.
With `COc1cccc(C(O)c2cc3nccc(C(=O)O)c3[nH]2)c1` (racemic) [Example 24, (±)-2-[hydroxy-(3-methoxyphenyl)methyl]-1H-pyrrolo[3,2-b]pyridine-7-carboxylic acid], the IC50 at Jarid1B was less than 0.1 µM; against Jarid1A, less than 0.1 µM; at JMJD2C, 0.1 to 1 µM; against JMJD2A, 0.1 to 1 µM.
For the compound `O=C(O)c1ccnc2cc(C(O)C3CCOCC3)[nH]c12` (racemic) [Example 43, (±)-2-[hydroxy(oxan-4-yl)methyl]-1H-pyrrolo[3,2-b]pyridine-7-carboxylic acid], the IC50 on Jarid1B is less than 0.1 µM; against Jarid1A, less than 0.1 µM; on JMJD2C, 0.1 to 1 µM; on JMJD2A it was 0.1 to 1 µM.
As to `O=C(O)c1ccnc2cc(Cc3ccc(F)c(F)c3)[nH]c12` [Example 126, 2-(3,4-difluorobenzyl)-1H-pyrrolo[3,2-b]pyridine-7-carboxylic acid], the IC50 at Jarid1B is 1 to 10 µM; against Jarid1A it was 1 to 10 µM; at JMJD2C, less than 0.1 µM; against JMJD2A, less than 0.1 µM.
Take `Cc1ccccc1-c1cc2nccc(C(=O)O)c2[nH]1` [Example 3, 2-(2-methylphenyl)-1H-pyrrolo[3,2-b]pyridine-7-carboxylic acid]: the IC50 on Jarid1B was 0.1 to 1 µM; on Jarid1A it was 0.1 to 1 µM; on JMJD2C, 0.1 to 1 µM; at JMJD2A, less than 0.1 µM.
As to `O=C(O)c1ccnc2cc(Cc3ccccc3)[nH]c12` [Example 7, 2-benzyl-1H-pyrrolo[3,2-b]pyridine-7-carboxylic acid, sodium salt], the IC50 was 0.1 to 1 µM at Jarid1B; 0.1 to 1 µM on Jarid1A; more than 10 µM in the test on KDM5A and KDM5B; 0.1 to 1 µM on JMJD2C; 0.1 to 1 µM on JMJD2A.
Consider `O=C(O)c1ccnc2cc(C(=O)N3CCCC3)[nH]c12` [Example 99, 2-(pyrrolidin-1-ylcarbonyl)-1H-pyrrolo[3,2-b]pyridine-7-carboxylic acid], for which the IC50 on Jarid1B, against Jarid1A, at JMJD2C and against JMJD2A was less than 0.1 µM in each case.
As for `COc1cccc(Cc2cc3nccc(C(=O)O)c3[nH]2)c1` [Example 34, 2-[(3-methoxyphenyl)methyl]-1H-pyrrolo[3,2-b]pyridine-7-carboxylic acid], the IC50 was 0.1 to 1 µM at Jarid1B; less than 0.1 µM against Jarid1A; more than 10 µM in the test on KDM5A and KDM5B; 0.1 to 1 µM on JMJD2C.
As for `O=C(O)c1ccnc2cc(COc3ccc(F)cc3)[nH]c12` [Example 60, 2-[(4-fluorophenoxy)methyl]-1H-pyrrolo[3,2-b]pyridine-7-carboxylic acid], the IC50 on Jarid1B was less than 0.1 µM; against Jarid1A, less than 0.1 µM; with KDM5A and KDM5B, 1 to 10 µM; on JMJD2C, 0.1 to 1 µM.
Take `O=C(O)c1ccnc2cc(Cc3ccc(Cl)c(C(F)(F)F)c3)[nH]c12` [Example 136, 2-[4-chloro-3-(trifluoromethyl)benzyl]-1H-pyrrolo[3,2-b]pyridine-7-carboxylic acid]: the IC50 at Jarid1B was 1 to 10 µM; at Jarid1A, 1 to 10 µM; at JMJD2C, less than 0.1 µM; at JMJD2A, 0.1 to 1 µM.
On to `O=C(O)c1ccnc2cc(Cc3ccc(Cl)cc3)[nH]c12` [Example 44, 2-[(4-chlorophenyl)methyl]-1H-pyrrolo[3,2-b]pyridine-7-carboxylic acid], for which the IC50 at Jarid1B is less than 0.1 µM; against Jarid1A it was less than 0.1 µM; in the test with KDM5A and KDM5B, more than 10 µM; on JMJD2C, 0.1 to 1 µM.
For the compound `O=C(O)c1ccnc2cc(COc3ccccc3)[nH]c12` [Example 39, 2-(phenoxymethyl)-1H-pyrrolo[3,2-b]pyridine-7-carboxylic acid], the IC50 is less than 0.1 µM at Jarid1B, less than 0.1 µM at Jarid1A, less than 0.1 µM on JMJD2C and 0.1 to 1 µM at JMJD2A.
With `O=C(O)c1ccnc2cc(Cc3ccc(Cl)c(OCC4CC4)c3)[nH]c12` [Example 138, 2-[4-chloro-3-(cyclopropylmethoxy)benzyl]-1H-pyrrolo[3,2-b]pyridine-7-carboxylic acid], the half-inhibitory concentration (IC50) at Jarid1B is less than 0.1 µM; at Jarid1A, 0.1 to 1 µM; at JMJD2C, less than 0.1 µM; against JMJD2A, 1 to 10 µM.
With `Cc1cc(Cc2cc3nccc(C(=O)O)c3[nH]2)ccc1Cl` [Example 134, 2-(4-chloro-3-methylbenzyl)-1H-pyrrolo[3,2-b]pyridine-7-carboxylic acid], the IC50 is 0.1 to 1 µM at Jarid1B, 1 to 10 µM at Jarid1A, less than 0.1 µM on JMJD2C and 0.1 to 1 µM at JMJD2A.
Regarding `O=C(O)c1ccnc2cc(Cc3cc(F)c(Cl)c(Cl)c3)[nH]c12` [Example 132, 2-(3,4-dichloro-5-fluorobenzyl)-1H-pyrrolo[3,2-b]pyridine-7-carboxylic acid], the IC50 at Jarid1B was in the range of 1 to 10 µM; at Jarid1A, 1 to 10 µM; on JMJD2C, 0.1 to 1 µM; on JMJD2A it was 0.1 to 1 µM.
For the compound `CC(O)(c1ccccc1)c1cc2nccc(C(=O)O)c2[nH]1` (racemic) [Example 46, (±)-2-(1-hydroxy-1-phenylethyl)-1H-pyrrolo[3,2-b]pyridine-7-carboxylic acid], the IC50 at Jarid1B is 0.1 to 1 µM; at Jarid1A it was less than 0.1 µM; in the test with KDM5A and KDM5B, more than 10 µM; on JMJD2C, 0.1 to 1 µM.
